# From ChEMBL document CHEMBL3885861, “Open TG-GATES”
# Species on record: Rattus norvegicus
# Test: Open TG-GATES - Regimen: Daily Repeat
# Type: toxicity, organism-based, Sprague-Dawley
# Design: regimen Daily Repeat, gender Male, age 6 weeks
# Conditions: in vivo, po, route gavage; for gamma-GTP / ALP / ALT / AST / BUN / CRE / Ca / DBIL / GLC / IP / K / LDH / Na / PL / RALB / TBIL / TC / TG / TP: tissue Plasma; for APTT / Bas / Eos / Fbg / Hb / Ht / Lym / MCH / MCHC / MCV / Mono / Neu / PT / Plat / RBC / Ret / WBC: tissue Blood; for KIDNEY_L / KIDNEY_R / KIDNEY_TOTAL: tissue Kidney; for LIVER: tissue Liver
# [1] = 10 mg/kg, 72 h, dose level Low, time 3 day
# [2] = 10 mg/kg, […], dose level Low, time 7 day
# [3] = 10 mg/kg, […], dose level Low, time 14 day
# [4] = 10 mg/kg, […], dose level Low, time 28 day
structure (smiles),measurement,setting,value
CSc1ccc2c(c1)N(CCC1CCCCN1C)c1ccccc1S2 (centres undefined) [THIORIDAZINE],gamma-GTP,"0 mg/kg, […], dose level Control, time 28 day",1.4 IU/L
same,TERMINAL_BW,[1],239 g
same,APTT,[1],16.3 s
same,Bas,[1],0%
same,Eos,[1],1%
same,Fbg,[1],219.4 mg/dL
same,Hb,[1],13.5 g/dL
same,Ht,[1],40.6%
same,Lym,[1],81%
same,MCH,[1],21.2 pg
same,MCHC,[1],33.3%
same,MCV,[1],63.6 fL
same,Mono,[1],5.8%
same,Neu,[1],12.4%
same,PT,[1],11.9 s
same,Plat,[1],107.3 x10_4/uL
same,RBC,[1],638.4 x10_4/ul
same,Ret,[1],8.8%
same,WBC,[1],136.6 x10_2/uL
same,KIDNEY_L,[1],1.1 g
same,KIDNEY_R,[1],1.1 g
same,KIDNEY_TOTAL,[1],2.2 g
same,LIVER,[1],12.5 g
same,ALP,[1],797.8 IU/L
same,ALT,[1],35.6 IU/L
same,AST,[1],62.2 IU/L
same,BUN,[1],17.2 mg/dL
same,CRE,[1],0.5 mg/dL
same,Ca,[1],11 mg/dL
same,DBIL,[1],0.042 mg/dL
same,GLC,[1],193.2 mg/dL
same,IP,[1],9 mg/dL
same,K,[1],4.7 meq/L
same,LDH,[1],82 IU/L
same,Na,[1],138.2 meq/L
same,PL,[1],163 mg/dL
same,RALB,[1],3.9 g/dL
same,TBIL,[1],0.3 mg/dL
same,TC,[1],81.8 mg/dL
same,TG,[1],137 mg/dL
same,TP,[1],5.9 g/dL
same,gamma-GTP,[1],1.6 IU/L
same,TERMINAL_BW,[2],268.9 g
same,TERMINAL_BW,[3],333.8 g
same,TERMINAL_BW,[4],403.9 g
same,APTT,[2],16.8 s
same,Bas,[2],0%
same,Eos,[2],0.8%
same,Fbg,[2],223 mg/dL
same,Hb,[2],13.9 g/dL
same,Ht,[2],41.4%
same,Lym,[2],79.2%
same,MCH,[2],20.6 pg
same,MCHC,[2],33.5%
same,MCV,[2],61.5 fL
same,Mono,[2],7%
same,Neu,[2],13.2%
same,PT,[2],12.1 s
same,Plat,[2],118.8 x10_4/uL
same,RBC,[2],674.2 x10_4/ul
same,Ret,[2],5.2%
same,WBC,[2],127.5 x10_2/uL
same,APTT,[3],17.3 s
same,Bas,[3],0%
same,Eos,[3],0.8%
same,Fbg,[3],237.8 mg/dL
same,Hb,[3],14.7 g/dL
same,Ht,[3],43.8%
same,Lym,[3],84.4%
same,MCH,[3],20.8 pg
same,MCHC,[3],33.6%
same,MCV,[3],62.1 fL
same,Mono,[3],5.8%
same,Neu,[3],9%
same,PT,[3],11.7 s
same,Plat,[3],115 x10_4/uL
same,RBC,[3],706.6 x10_4/ul
same,Ret,[3],4.2%
same,WBC,[3],167.8 x10_2/uL
same,APTT,[4],17.6 s
same,Bas,[4],0%
same,Eos,[4],1%
same,Fbg,[4],233 mg/dL
same,Hb,[4],15.4 g/dL
same,Ht,[4],45.5%
same,Lym,[4],83.6%
same,MCH,[4],19.8 pg
same,MCHC,[4],33.9%
same,MCV,[4],58.3 fL
same,Mono,[4],6.2%
same,Neu,[4],9.6%
same,PT,[4],12.1 s
same,Plat,[4],121.4 x10_4/uL
same,RBC,[4],780.6 x10_4/ul
same,Ret,[4],2.6%
same,WBC,[4],150 x10_2/uL
same,KIDNEY_L,[2],1.1 g
same,KIDNEY_R,[2],1.1 g
same,KIDNEY_TOTAL,[2],2.3 g
same,KIDNEY_L,[3],1.3 g
same,KIDNEY_R,[3],1.4 g
same,KIDNEY_TOTAL,[3],2.7 g
same,KIDNEY_L,[4],1.5 g
same,KIDNEY_R,[4],1.5 g
same,KIDNEY_TOTAL,[4],3 g
same,LIVER,[2],13.2 g
same,LIVER,[3],15.4 g
same,LIVER,[4],17.2 g
same,ALP,[2],792.4 IU/L
same,ALT,[2],34 IU/L
same,AST,[2],61 IU/L
same,BUN,[2],18.4 mg/dL
same,CRE,[2],0.5 mg/dL
same,Ca,[2],11.1 mg/dL
same,DBIL,[2],0 mg/dL
same,GLC,[2],197.2 mg/dL
same,IP,[2],8.3 mg/dL
same,K,[2],4.8 meq/L
same,LDH,[2],84 IU/L
same,Na,[2],139.4 meq/L
same,PL,[2],172.8 mg/dL
same,RALB,[2],4 g/dL
same,TBIL,[2],0.3 mg/dL
same,TC,[2],88.4 mg/dL
same,TG,[2],118.6 mg/dL
same,TP,[2],6 g/dL
same,gamma-GTP,[2],1.2 IU/L
same,ALP,[3],779.6 IU/L
same,ALT,[3],33.6 IU/L
same,AST,[3],62.8 IU/L
same,BUN,[3],20.4 mg/dL
same,CRE,[3],0.6 mg/dL
same,Ca,[3],10.9 mg/dL
same,DBIL,[3],0.002 mg/dL
same,GLC,[3],178.6 mg/dL
same,IP,[3],7.8 mg/dL
same,K,[3],5.2 meq/L
same,LDH,[3],110.2 IU/L
same,Na,[3],139.4 meq/L
same,PL,[3],167.8 mg/dL
same,RALB,[3],4.1 g/dL
same,TBIL,[3],0.3 mg/dL
same,TC,[3],81.2 mg/dL
same,TG,[3],158 mg/dL
same,TP,[3],6.3 g/dL
same,gamma-GTP,[3],1.2 IU/L
same,ALP,[4],564 IU/L
same,ALT,[4],32.4 IU/L
same,AST,[4],63.4 IU/L
same,BUN,[4],21.2 mg/dL
same,CRE,[4],0.6 mg/dL
same,Ca,[4],10.7 mg/dL
same,DBIL,[4],0 mg/dL
same,GLC,[4],180.8 mg/dL
same,IP,[4],7.3 mg/dL
same,K,[4],4.3 meq/L
same,LDH,[4],131.8 IU/L
same,Na,[4],140.4 meq/L
same,PL,[4],162.4 mg/dL
same,RALB,[4],4.2 g/dL
same,TBIL,[4],0.2 mg/dL
same,TC,[4],74 mg/dL
same,TG,[4],177.2 mg/dL
same,TP,[4],6.4 g/dL
